# Data reported in ChEMBL document CHEMBL1122763, “Synthesis and biological activity of certain 3,4-disubstituted pyrazolo[3,4-d]pyrimidine nucleosides” (J Med Chem, 1984).
# Activity calls are given as the source filed them. The calls are words filed in the database; no cut-off is given here.
# System: L1210
# Assay: Compound was evaluated for inhibition of L1210 leukemia cells
# Type: functional
# Conditions: Mus musculus, read-out: ID50 (the source's name)
row,SMILES,IC50 [nM]
1,O=Nn1c(=O)c2c(O)ncnc2n1C1O[C@H](CO)[C@@H](O)[C@H]1O (some centres not stated),430
2,N#Cc1nn(C2O[C@H](CO)[C@@H](O)[C@H]2O)c2ncnc(S)c12 (some centres not stated),140
3,N#Cc1nn(C2O[C@H](CO)[C@@H](O)[C@H]2O)c2ncnc(N)c12 (some centres not stated),79
4,NC(=S)c1nn(C2O[C@H](CO)[C@@H](O)[C@H]2O)c2nc[nH]c(=O)c12 (some centres not stated),360
5,Cl.N=C(N)c1nn(C2O[C@H](CO)[C@H](O)[C@@H]2O)c2ncnc(O)c12 (some centres not stated),230
6,NC(=O)c1nn(C2O[C@H](CO)[C@@H](O)[C@H]2O)c2nc[nH]c(=O)c12 (some centres not stated),13000

# System: L1210
# Assay: Percent inhibition at a concentration 10 E -4 against L1210 leukemia cells; Inactive
# Type: functional, cell-based
# Conditions: Mus musculus
SMILES,ID50,inhibition
N=C(NO)c1nn(C2O[C@H](CO)[C@@H](O)[C@H]2O)c2nc[nH]c(=O)c12 (some centres not stated),inactive,–
CNc1nn(C2O[C@H](CO)[C@@H](O)[C@H]2O)c2nc[nH]c(=O)c12 (some centres not stated),–,inactive

# System: Vero
# Assay: Virus rating was determined by comparing cytopathic effect against vero cells after infection with Herpes simplex virus-1
# Type: functional, Chlorocebus sabaeus
# Conditions: not given
row,SMILES,Virus rating
1,O=Nn1c(=O)c2c(O)ncnc2n1C1O[C@H](CO)[C@@H](O)[C@H]1O (some centres not stated),0.35
2,N=C(NO)c1nn(C2O[C@H](CO)[C@@H](O)[C@H]2O)c2nc[nH]c(=O)c12 (some centres not stated),0.1
3,CNc1nn(C2O[C@H](CO)[C@@H](O)[C@H]2O)c2nc[nH]c(=O)c12 (some centres not stated),0
4,N#Cc1nn(C2O[C@H](CO)[C@@H](O)[C@H]2O)c2ncnc(S)c12 (some centres not stated),1
5,NC(=S)c1nn(C2O[C@H](CO)[C@@H](O)[C@H]2O)c2nc[nH]c(=O)c12 (some centres not stated),0
6,Cl.N=C(N)c1nn(C2O[C@H](CO)[C@H](O)[C@@H]2O)c2ncnc(O)c12 (some centres not stated),0.2
7,NC(=O)c1nn(C2O[C@H](CO)[C@@H](O)[C@H]2O)c2nc[nH]c(=O)c12 (some centres not stated),0

# System: not listed separately
# Assay: Toxic level was determined
# Type: ADME
# Conditions: not given
row,SMILES,Toxic level [mM]
1,O=Nn1c(=O)c2c(O)ncnc2n1C1O[C@H](CO)[C@@H](O)[C@H]1O (some centres not stated),5
2,CNc1nn(C2O[C@H](CO)[C@@H](O)[C@H]2O)c2nc[nH]c(=O)c12 (some centres not stated),1.6
3,NC(=S)c1nn(C2O[C@H](CO)[C@@H](O)[C@H]2O)c2nc[nH]c(=O)c12 (some centres not stated),5
4,Cl.N=C(N)c1nn(C2O[C@H](CO)[C@H](O)[C@@H]2O)c2ncnc(O)c12 (some centres not stated),5
5,NC(=O)c1nn(C2O[C@H](CO)[C@@H](O)[C@H]2O)c2nc[nH]c(=O)c12 (some centres not stated),5

# System: Leishmania tropica
# Assay: Concentration in the culture media that produced 50% inhibition of the leishmania tropica growth
# Type: functional
# Conditions: read-out: ED50 (the source's name)
row,SMILES,EC50 [µM]
1,O=Nn1c(=O)c2c(O)ncnc2n1C1O[C@H](CO)[C@@H](O)[C@H]1O (some centres not stated),> 160

# System: P388
# Assay: Percent inhibition at a concentration 10 E -4 against P388 lymphoid neoplasm cells; Inactive
# Type: functional, cell-based
# Conditions: Mus musculus
row,SMILES,ID50
1,N=C(NO)c1nn(C2O[C@H](CO)[C@@H](O)[C@H]2O)c2nc[nH]c(=O)c12 (some centres not stated),inactive

# System: Vero
# Assay: Virus rating was determined by comparing cytopathic effect against vero cells after infection with Parainfluenza type 3 (para 3)
# Type: functional, Chlorocebus sabaeus
# Conditions: not given
row,SMILES,Virus rating
1,O=Nn1c(=O)c2c(O)ncnc2n1C1O[C@H](CO)[C@@H](O)[C@H]1O (some centres not stated),0.45
2,N=C(NO)c1nn(C2O[C@H](CO)[C@@H](O)[C@H]2O)c2nc[nH]c(=O)c12 (some centres not stated),0.2
3,CNc1nn(C2O[C@H](CO)[C@@H](O)[C@H]2O)c2nc[nH]c(=O)c12 (some centres not stated),0.1
4,N#Cc1nn(C2O[C@H](CO)[C@@H](O)[C@H]2O)c2ncnc(S)c12 (some centres not stated),1.1
5,NC(=S)c1nn(C2O[C@H](CO)[C@@H](O)[C@H]2O)c2nc[nH]c(=O)c12 (some centres not stated),1.15
6,Cl.N=C(N)c1nn(C2O[C@H](CO)[C@H](O)[C@@H]2O)c2ncnc(O)c12 (some centres not stated),1.1
7,NC(=O)c1nn(C2O[C@H](CO)[C@@H](O)[C@H]2O)c2nc[nH]c(=O)c12 (some centres not stated),0.3

# System: not listed separately
# Assay: (§1) Toxic level was determined; Non toxic
# Type: ADME
# Conditions: not given
row,SMILES,Toxic level [mM]
1,N#Cc1nn(C2O[C@H](CO)[C@@H](O)[C@H]2O)c2ncnc(S)c12 (some centres not stated),5

# System: not listed separately
# Assay: as §1
# Type: functional
# Conditions: not given
row,SMILES,Toxic level [mM]
1,N=C(NO)c1nn(C2O[C@H](CO)[C@@H](O)[C@H]2O)c2nc[nH]c(=O)c12 (some centres not stated),5

# System: P388
# Assay: Compound was evaluated for inhibition of P388 lymphoid neoplasm cells
# Type: functional
# Conditions: Mus musculus, read-out: ID50 (the source's name)
row,SMILES,IC50 [nM]
1,O=Nn1c(=O)c2c(O)ncnc2n1C1O[C@H](CO)[C@@H](O)[C@H]1O (some centres not stated),160
2,N#Cc1nn(C2O[C@H](CO)[C@@H](O)[C@H]2O)c2ncnc(S)c12 (some centres not stated),320
3,NC(=S)c1nn(C2O[C@H](CO)[C@@H](O)[C@H]2O)c2nc[nH]c(=O)c12 (some centres not stated),600
4,Cl.N=C(N)c1nn(C2O[C@H](CO)[C@H](O)[C@@H]2O)c2ncnc(O)c12 (some centres not stated),370
5,NC(=O)c1nn(C2O[C@H](CO)[C@@H](O)[C@H]2O)c2nc[nH]c(=O)c12 (some centres not stated),18000

# System: Vero
# Assay: Virus rating was determined by comparing cytopathic effect against vero cells after infection with Vaccinia virus
# Type: functional, Chlorocebus sabaeus
# Conditions: not given
row,SMILES,Virus rating
1,O=Nn1c(=O)c2c(O)ncnc2n1C1O[C@H](CO)[C@@H](O)[C@H]1O (some centres not stated),0.8
2,N=C(NO)c1nn(C2O[C@H](CO)[C@@H](O)[C@H]2O)c2nc[nH]c(=O)c12 (some centres not stated),0.12
3,CNc1nn(C2O[C@H](CO)[C@@H](O)[C@H]2O)c2nc[nH]c(=O)c12 (some centres not stated),0.2
4,N#Cc1nn(C2O[C@H](CO)[C@@H](O)[C@H]2O)c2ncnc(S)c12 (some centres not stated),1.24
5,NC(=S)c1nn(C2O[C@H](CO)[C@@H](O)[C@H]2O)c2nc[nH]c(=O)c12 (some centres not stated),0.4
6,Cl.N=C(N)c1nn(C2O[C@H](CO)[C@H](O)[C@@H]2O)c2ncnc(O)c12 (some centres not stated),0.31
7,NC(=O)c1nn(C2O[C@H](CO)[C@@H](O)[C@H]2O)c2nc[nH]c(=O)c12 (some centres not stated),0.4

# System: Vero
# Assay: Virus rating was determined by comparing cytopathic effect against vero cells after infection with Vesicular stomatitis virus
# Type: functional, Chlorocebus sabaeus
# Conditions: not given
row,SMILES,Virus rating
1,O=Nn1c(=O)c2c(O)ncnc2n1C1O[C@H](CO)[C@@H](O)[C@H]1O (some centres not stated),0
2,N=C(NO)c1nn(C2O[C@H](CO)[C@@H](O)[C@H]2O)c2nc[nH]c(=O)c12 (some centres not stated),0.35
3,N#Cc1nn(C2O[C@H](CO)[C@@H](O)[C@H]2O)c2ncnc(S)c12 (some centres not stated),0.56
4,Cl.N=C(N)c1nn(C2O[C@H](CO)[C@H](O)[C@@H]2O)c2ncnc(O)c12 (some centres not stated),0
5,NC(=O)c1nn(C2O[C@H](CO)[C@@H](O)[C@H]2O)c2nc[nH]c(=O)c12 (some centres not stated),0

# System: Lewis lung carcinoma cell line
# Assay: 50% inhibition of the tumor cell growth as compared to the untreated controls against Lewis lung cells
# Type: functional
# Conditions: Mus musculus, read-out: ID50 (the source's name)
row,SMILES,IC50 [µM]
1,O=Nn1c(=O)c2c(O)ncnc2n1C1O[C@H](CO)[C@@H](O)[C@H]1O (some centres not stated),2.5
2,NC(=S)c1nn(C2O[C@H](CO)[C@@H](O)[C@H]2O)c2nc[nH]c(=O)c12 (some centres not stated),2.4
3,Cl.N=C(N)c1nn(C2O[C@H](CO)[C@H](O)[C@@H]2O)c2ncnc(O)c12 (some centres not stated),6.4
4,NC(=O)c1nn(C2O[C@H](CO)[C@@H](O)[C@H]2O)c2nc[nH]c(=O)c12 (some centres not stated),20

# System: B16
# Assay: 50% inhibition of the tumor cell growth as compared to the untreated controls against B16 melanoma cells
# Type: functional
# Conditions: Mus musculus, read-out: ID50 (the source's name)
row,SMILES,IC50 [µM]
1,O=Nn1c(=O)c2c(O)ncnc2n1C1O[C@H](CO)[C@@H](O)[C@H]1O (some centres not stated),80
2,NC(=S)c1nn(C2O[C@H](CO)[C@@H](O)[C@H]2O)c2nc[nH]c(=O)c12 (some centres not stated),16
3,Cl.N=C(N)c1nn(C2O[C@H](CO)[C@H](O)[C@@H]2O)c2ncnc(O)c12 (some centres not stated),3.8

# System: B16
# Assay: Percent inhibition of the tumor cell growth as compared to the untreated controls against B16 melanoma cells at a concentration of 10 E-4
# Type: functional, Mus musculus
# Conditions: not given
row,SMILES,Inhibition [%]
1,NC(=O)c1nn(C2O[C@H](CO)[C@@H](O)[C@H]2O)c2nc[nH]c(=O)c12 (some centres not stated),37

# System: P388
# Assay: Percent inhibition at a concentration 10 E -4 against P388 lymphoid neoplasm cells
# Type: functional, Mus musculus
# Conditions: not given
row,SMILES,Inhibition [%]
1,CNc1nn(C2O[C@H](CO)[C@@H](O)[C@H]2O)c2nc[nH]c(=O)c12 (some centres not stated),20
